Measurements reported in US7279321B2, “Methods for increasing the resistance of a host cell to aromatic carboxylic acids” (priority 2003, dated 2007).
≈ marks a conversion by molar mass, not a printed value.

Tested on: E. coli strain DPD2444 (yhcP::TN<Kan>)
Test: MIC, 2-fold dilutions, Vogel-Bonner medium with 0.4% glucose
Format: cell-based
Settings: Escherichia coli, read-out: MIC for pHBA
From the text: The yhcP::TN<Kan> was introduced into E. coli strain MG1655 (obtained from Prof. Douglas Berg, Washington University School of Medicine, St. Louis, […].) by P1clr100 Cm mediated transduction to kanamycin resistance using phage lysates of E. coli strain DPD2443. One of the resultant kanamycin resistant transductants was named DPD2444.

O=C(O)c1ccc(O)cc1 [pHBA, para-hydroxybenzoic acid]
MIC: 25 mM (≈ 3450 µg/mL)
